pIC50: −log10 of the molar value. Activity calls are given as the source filed them. The rule behind the calls is not given here.
Key:
J774.A1 = assay: Cytotoxicity against mouse J774A1 cells at 1 to 100 uM after 48 hrs by MTT assay; assay type: cell-based; conditions: j774.a1, 48 h
Leishmania donovani [1] = assay: Antileishmanial activity against promastigote form of Leishmania donovani DD8 after 48 hrs by MTT assay; assay type: functional, organism-based; conditions: DD8, 48 h
[2] = Cytotoxicity against human HEK293 cells assessed as cell viability at 100 uM after 48 hrs by MTT assay relative to control; assay type: cell-based; conditions: read-out: Activity
[3] = biological target: Trypanothione reductase (Leishmania donovani) (UniProt P39050); assay: Inhibition of Leishmania donovani DD8 promastigote form trypanothione reductase assessed as decrease in reduced thiol level at 100 uM after 12 hrs by DTNB-based spectrophotometric analysis relative to control
Sequence of Trypanothione reductase (Leishmania donovani) (P39050 whole entry): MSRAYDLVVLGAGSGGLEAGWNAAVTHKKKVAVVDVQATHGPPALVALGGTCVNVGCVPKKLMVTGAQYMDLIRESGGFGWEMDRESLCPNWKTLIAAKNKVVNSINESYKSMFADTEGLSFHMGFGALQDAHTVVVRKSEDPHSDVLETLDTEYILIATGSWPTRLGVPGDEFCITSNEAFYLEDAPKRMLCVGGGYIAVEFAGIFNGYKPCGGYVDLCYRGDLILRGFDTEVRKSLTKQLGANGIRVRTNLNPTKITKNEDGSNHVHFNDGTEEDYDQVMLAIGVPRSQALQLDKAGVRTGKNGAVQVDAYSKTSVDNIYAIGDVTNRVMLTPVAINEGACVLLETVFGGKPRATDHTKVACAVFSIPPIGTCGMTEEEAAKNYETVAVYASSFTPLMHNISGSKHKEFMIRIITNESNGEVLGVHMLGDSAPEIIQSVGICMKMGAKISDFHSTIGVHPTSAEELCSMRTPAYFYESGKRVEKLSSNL

Leishmania donovani [4] = assay: Induction of apoptosis in promastigote form of Leishmania donovani DD8 assessed as late apoptotic cells at 20 uM after 24 hrs by FITC-annexinV/PI-based flow cytometric analysis (reference value: 3.4%); assay type: functional
Leishmania donovani [5] = assay: Induction of oxidative stress in promastigote form of Leishmania donovani DD8 assessed as change in cell surface topology at 20 uM by CM-H2DCFDA-based flow cytometric analysis; assay type: functional, organism-based
Leishmania donovani [6] = assay: Antileishmanial activity against promastigote form of Leishmania donovani DD8 assessed as cell death at 200 uM from 12 to 48 hrs by ethidium bormide/acridine orange staining-based fluorescence microscopic analysis; assay type: functional, organism-based
[7] = Cytotoxicity against human HEK293 cells assessed as cell viability at 4 uM after 48 hrs by MTT assay relative to control; assay type: cell-based; conditions: read-out: Activity
[8] = biological target: Trypanothione reductase (Leishmania donovani) (UniProt P39050); assay: Inhibition of Leishmania donovani DD8 axenic form trypanothione reductase assessed as decrease in reduced thiol level at 100 uM after 12 hrs by DTNB-based spectrophotometric analysis relative to control
Leishmania donovani [9] = assay: Induction of oxidative stress in axenic form of Leishmania donovani DD8 assessed as change in cell surface topology at 20 uM by CM-H2DCFDA-based flow cytometric analysis; assay type: functional, organism-based
[10] = biological target: Trypanothione reductase (Leishmania donovani) (UniProt P39050); assay: Inhibition of Leishmania donovani DD8 promastigote form trypanothione reductase assessed as decrease in reduced thiol level at 100 uM after 48 hrs by DTNB-based spectrophotometric analysis relative to control
Leishmania donovani [11] = assay: Induction of apoptosis in promastigote form of Leishmania donovani DD8 assessed as early apoptotic cells at 20 uM after 24 hrs by FITC-annexinV/PI-based flow cytometric analysis (reference value: 2.61%); assay type: functional
[12] = biological target: Trypanothione reductase (Leishmania donovani) (UniProt P39050); assay: Inhibition of Leishmania donovani DD8 promastigote form trypanothione reductase assessed as decrease in reduced thiol level at 3.125 uM after 12 hrs by DTNB-based spectrophotometric analysis relative to control
[13] = biological target: Trypanothione reductase (Leishmania donovani) (UniProt P39050); assay: Inhibition of Leishmania donovani DD8 axenic form trypanothione reductase assessed as decrease in reduced thiol level at 3.125 uM after 12 hrs by DTNB-based spectrophotometric analysis relative to control
[14] = biological target: Trypanothione reductase (Leishmania donovani) (UniProt P39050); assay: Inhibition of Leishmania donovani DD8 promastigote form trypanothione reductase assessed as decrease in reduced thiol level at 3.125 uM after 48 hrs by DTNB-based spectrophotometric analysis relative to control
Leishmania donovani [15] = assay: Antileishmanial activity against amastigote form of Leishmania donovani DD8 infected in mouse J774A1 cells at 100 uM after 48 hrs by ethidium bromide/acridine orange staining-based fluorescence microscopic analysis; assay type: functional, organism-based; conditions: J774.A1
Leishmania donovani [16] = assay: Induction of oxidative stress in axenic form of Leishmania donovani DD8 assessed as increase in ROS level at 20 uM by CM-H2DCFDA-based flow cytometric analysis; assay type: functional, organism-based
[17] = biological target: Trypanothione reductase (Leishmania donovani) (UniProt P39050); assay: Inhibition of Leishmania donovani DD8 axenic form trypanothione reductase assessed as decrease in reduced thiol level at 100 uM after 48 hrs by DTNB-based spectrophotometric analysis relative to control
Leishmania donovani [18] = assay: Antileishmanial activity against amastigote form of Leishmania donovani DD8 infected in mouse J774A1 cells at 10 uM after 48 hrs by ethidium bromide/acridine orange staining-based fluorescence microscopic analysis; assay type: functional, organism-based; conditions: J774.A1
Leishmania donovani [19] = assay: Induction of oxidative stress in promastigote form of Leishmania donovani DD8 assessed as increase in ROS level at 20 uM by CM-H2DCFDA-based flow cytometric analysis; assay type: functional, organism-based
[20] = biological target: Trypanothione reductase (Leishmania donovani) (UniProt P39050); assay: Inhibition of Leishmania donovani DD8 axenic form trypanothione reductase assessed as decrease in reduced thiol level at 3.125 uM after 48 hrs by DTNB-based spectrophotometric analysis relative to control
Leishmania donovani [21] = assay: Induction of apoptosis in promastigote form of Leishmania donovani DD8 assessed as viable cells at 20 uM after 24 hrs by FITC-annexinV/PI-based flow cytometric analysis (reference value: 92.68%); assay type: functional
Leishmania donovani [22] = assay: Induction of oxidative stress in promastigote form of Leishmania donovani DD8 assessed as increase in ROS level at 5 to 20 uM up to 48 hrs by CM-H2DCFDA-based fluorimetric analysis; assay type: functional, organism-based
Leishmania donovani [23] = assay: Induction of necrosis in promastigote form of Leishmania donovani DD8 assessed as necrotic cells at 20 uM after 24 hrs by FITC-annexinV/PI-based flow cytometric analysis (reference value: 1.31%); assay type: functional
Leishmania donovani [24] = assay: Antileishmanial activity against axenic form of Leishmania donovani DD8 after 48 hrs by MTT assay; assay type: functional, organism-based; conditions: DD8, 48 h
Leishmania donovani [25] = assay: Induction of oxidative stress in amastigote form of Leishmania donovani DD8 assessed as increase in ROS level at 5 to 20 uM up to 48 hrs by CM-H2DCFDA-based fluorimetric analysis; assay type: functional, organism-based

SMILES | Activity (J774.A1) | pIC50 (Leishmania donovani [1]) | viability at 48 h, 100 µM [2] | inhibition [3] | Activity (Leishmania donovani [4]) | Activity (Leishmania donovani [5]) | Activity (Leishmania donovani [6]) | viability at 48 h, 4 µM [7] | inhibition [8] | Activity (Leishmania donovani [9]) | inhibition [10] | Activity (Leishmania donovani [11]) | inhibition [12] | inhibition [13] | inhibition [14] | Activity (Leishmania donovani [15]) | Activity (Leishmania donovani [16]) | inhibition [17] | Activity (Leishmania donovani [18]) | Activity (Leishmania donovani [19]) | further results
COC(=O)C1=CO[C@@H](O[C@@H]2O[C@H](CO)[C@@H](O)[C@H](O)[C@H]2O)[C@@H]2[C@@H](C)[C@@H](OC(=O)/C=C/c3ccc(OC)cc3)[C@@H](O)[C@H]12 [ARBORTRISTOSIDE A] | Non-toxic | 5.49 | 71.2% | 60.1% | 2.13% | Active | Active | 95.5% | 65.8% | Active | 33.8% | 26.3% | 92.5% | 97.9% | 63.7% | Active | Active | 41.9% | Active | Active | inhibition [20]: 73.4%; Activity (Leishmania donovani [21]): 61.24%; Activity (Leishmania donovani [22]): Active; Activity (Leishmania donovani [23]): 10.33%; pIC50 (Leishmania donovani [24]): 5.14; Activity (Leishmania donovani [25]): Active
COC(=O)C1=CO[C@@H](O[C@@H]2O[C@H](CO)[C@@H](O)[C@H](O)[C@H]2O)[C@@H]2[C@@H](CO)[C@@H](OC(=O)/C=C/c3ccc(O)c(O)c3)[C@@H](O)[C@H]12 [ARBORTRISTOSIDE B] | Non-toxic | 5.46 | 54.8% | 63.6% | 2.96% | Active | Active | 93.6% | 67.9% | Active | 41.9% | 31.04% | 92.6% | 96.9% | 67.9% | Active | Active | 46.9% | Active | Active | inhibition [20]: 77.5%; Activity (Leishmania donovani [21]): 52.48%; Activity (Leishmania donovani [22]): Active; Activity (Leishmania donovani [23]): 13.52%; pIC50 (Leishmania donovani [24]): 5.12; Activity (Leishmania donovani [25]): Active
COC(=O)C1=CO[C@@H](O[C@@H]2O[C@H](CO)[C@@H](O)[C@H](O)[C@H]2O)[C@@H]2[C@@H](C)[C@@H](OC(=O)/C=C/c3ccc(O)cc3)[C@@H](O)[C@H]12 [ARBORTRISTOSIDE C] | Non-toxic | 5.30 | 48.6% | 62.7% | 2.51% | Active | Active | 89.6% | 67.8% | Active | 46.9% | 36.59% | 95.3% | 97.7% | 78.9% | Active | Active | 51.7% | Active | Active | inhibition [20]: 82.8%; Activity (Leishmania donovani [21]): 50.9%; Activity (Leishmania donovani [22]): Active; Activity (Leishmania donovani [23]): 10%; pIC50 (Leishmania donovani [24]): 5.05; Activity (Leishmania donovani [25]): Active

From ChEMBL document CHEMBL2177063, “Iridoid glucosides from Nyctanthes arbortristis result in increased reactive oxygen species and cellular redox homeostasis imbalance in Leishmania parasite” (Eur J Med Chem, 2012)
